Laboratory results reported in PubChem BioAssay (NCI).
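The concentration for 50% growth inhibition is given as GI50. TGI denotes the concentration required for complete inhibition of growth.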

Columns and labels:
Experiment in all cases: NCI anticancer screen, dose series, 384-well format
KM12 colon = tested on: KM12 colon
NCI/ADR-RES ovarian = tested on: NCI/ADR-RES ovarian
HL-60(TB) leukemia = tested on: HL-60(TB) leukemia
IGROV1 ovarian = tested on: IGROV1 ovarian
HT29 colon = tested on: HT29 colon
NCI-H226 lung = tested on: NCI-H226 lung
MALME-3M melanoma = tested on: MALME-3M melanoma
LOX IMVI melanoma = tested on: LOX IMVI melanoma
OVCAR-3 ovarian = tested on: OVCAR-3 ovarian
M14 melanoma = tested on: M14 melanoma
T-47D breast = tested on: T-47D breast
UACC-62 melanoma = tested on: UACC-62 melanoma
SK-MEL-2 melanoma = tested on: SK-MEL-2 melanoma
SR leukemia = tested on: SR leukemia
ACHN renal = tested on: ACHN renal
MOLT-4 leukemia = tested on: MOLT-4 leukemia
786-0 renal = tested on: 786-0 renal
SF-295 CNS = tested on: SF-295 CNS
MDA-MB-435 melanoma = tested on: MDA-MB-435 melanoma
MDA-MB-231 breast = tested on: MDA-MB-231 breast
RPMI-8226 leukemia = tested on: RPMI-8226 leukemia
HCC-2998 colon = tested on: HCC-2998 colon
SK-OV-3 ovarian = tested on: SK-OV-3 ovarian
OVCAR-5 ovarian = tested on: OVCAR-5 ovarian
A498 renal = tested on: A498 renal
OVCAR-4 ovarian = tested on: OVCAR-4 ovarian
SNB-75 CNS = tested on: SNB-75 CNS
RXF 393 renal = tested on: RXF 393 renal
K-562 leukemia = tested on: K-562 leukemia
NCI-H23 lung = tested on: NCI-H23 lung
MCF7 breast = tested on: MCF7 breast
CAKI-1 renal = tested on: CAKI-1 renal
SF-268 CNS = tested on: SF-268 CNS
U251 glioblastoma = tested on: U251 glioblastoma
SK-MEL-5 melanoma = tested on: SK-MEL-5 melanoma
SW-620 colon = tested on: SW-620 colon
NCI-H522 lung = tested on: NCI-H522 lung
PC-3 prostate = tested on: PC-3 prostate
SNB-19 CNS = tested on: SNB-19 CNS
MDA-MB-468 breast = tested on: MDA-MB-468 breast
HCT-15 colon = tested on: HCT-15 colon
DU-145 prostate = tested on: DU-145 prostate
CCRF-CEM leukemia = tested on: CCRF-CEM leukemia
SF-539 CNS = tested on: SF-539 CNS
SN12C renal = tested on: SN12C renal
HOP-62 NSCLC = tested on: HOP-62 NSCLC
SK-MEL-28 melanoma = tested on: SK-MEL-28 melanoma
TK-10 renal = tested on: TK-10 renal
UACC-257 melanoma = tested on: UACC-257 melanoma
NCI-H460 NSCLC = tested on: NCI-H460 NSCLC
BT-549 breast = tested on: BT-549 breast
HS 578T breast = tested on: HS 578T breast
COLO 205 colon = tested on: COLO 205 colon
EKVX NSCLC = tested on: EKVX NSCLC
HOP-92 NSCLC = tested on: HOP-92 NSCLC
A549 NSCLC = tested on: A549 NSCLC
NCI-H322M lung = tested on: NCI-H322M lung
HCT-116 colon = tested on: HCT-116 colon
OVCAR-8 ovarian = tested on: OVCAR-8 ovarian

Structure (SMILES): Nc1ncn([C@H]2CC(O)[C@@H](CO)S2)c(=O)n1 (stereo partly specified)
- GI50 (KM12 colon): 441 nM
- TGI (KM12 colon): > 100000 nM
- GI50 (NCI/ADR-RES ovarian): 139 nM
- TGI (NCI/ADR-RES ovarian): 1260 nM
- GI50 (HL-60(TB) leukemia): 114 nM
- TGI (HL-60(TB) leukemia): 573 nM
- GI50 (IGROV1 ovarian): 2780 nM
- TGI (IGROV1 ovarian): > 100000 nM
- GI50 (HT29 colon): 1360 nM
- TGI (HT29 colon): > 77800 nM
- GI50 (NCI-H226 lung): 1710 nM
- TGI (NCI-H226 lung): 20700 nM
- GI50 (MALME-3M melanoma): 257 nM
- TGI (MALME-3M melanoma): 2030 nM
- GI50 (LOX IMVI melanoma): 534 nM
- TGI (LOX IMVI melanoma): 3410 nM
- GI50 (OVCAR-3 ovarian): 461 nM
- TGI (OVCAR-3 ovarian): 7090 nM
- GI50 (M14 melanoma): 2340 nM
- TGI (M14 melanoma): 17600 nM
- GI50 (T-47D breast): 7690 nM
- TGI (T-47D breast): > 100000 nM
- GI50 (UACC-62 melanoma): 1230 nM
- TGI (UACC-62 melanoma): 17300 nM
- GI50 (SK-MEL-2 melanoma): 253 nM
- TGI (SK-MEL-2 melanoma): 691 nM
- GI50 (SR leukemia): 123 nM
- TGI (SR leukemia): 808 nM
- GI50 (ACHN renal): 111 nM
- TGI (ACHN renal): 11700 nM
- TGI (MOLT-4 leukemia): 14.4 nM
- GI50 ([…]-0 renal): 178 nM
- TGI (786-0 renal): 10900 nM
- GI50 (SF-295 CNS): 7650 nM
- TGI (SF-295 CNS): > 74700 nM
- GI50 (MDA-MB-435 melanoma): 1120 nM
- TGI (MDA-MB-435 melanoma): > 100000 nM
- GI50 (MDA-MB-231 breast): 251 nM
- TGI (MDA-MB-231 breast): 3420 nM
- GI50 (RPMI-8226 leukemia): 622 nM
- TGI (RPMI-8226 leukemia): 2680 nM
- GI50 (HCC-2998 colon): 124 nM
- TGI (HCC-2998 colon): 3280 nM
- GI50 (SK-OV-3 ovarian): 1820 nM
- TGI (SK-OV-3 ovarian): 33600 nM
- GI50 (OVCAR-5 ovarian): 3190 nM
- TGI (OVCAR-5 ovarian): > 100000 nM
- GI50 (A498 renal): 146 nM
- TGI (A498 renal): 2650 nM
- GI50 (OVCAR-4 ovarian): 2610 nM
- TGI (OVCAR-4 ovarian): > 100000 nM
- GI50 (SNB-75 CNS): 7750 nM
- TGI (SNB-75 CNS): > 74100 nM
- GI50 (RXF 393 renal): 839 nM
- TGI (RXF 393 renal): 15100 nM
- GI50 (K-562 leukemia): 200 nM
- TGI (K-562 leukemia): 12600 nM
- GI50 (NCI-H23 lung): 272 nM
- TGI (NCI-H23 lung): 1800 nM
- GI50 (MCF7 breast): 256 nM
- TGI (MCF7 breast): > 100000 nM
- GI50 (CAKI-1 renal): 266 nM
- TGI (CAKI-1 renal): 14700 nM
- GI50 (SF-268 CNS): 1240 nM
- TGI (SF-268 CNS): 24000 nM
- GI50 (U251 glioblastoma): 1920 nM
- TGI (U251 glioblastoma): 24800 nM
- GI50 (SK-MEL-5 melanoma): 70.6 nM
- TGI (SK-MEL-5 melanoma): 1330 nM
- GI50 (SW-620 colon): 377 nM
- TGI (SW-620 colon): 16200 nM
- GI50 (NCI-H522 lung): 50.1 nM
- TGI (NCI-H522 lung): 529 nM
- GI50 (PC-3 prostate): 1270 nM
- TGI (PC-3 prostate): > 75100 nM
- GI50 (SNB-19 CNS): 442 nM
- TGI (SNB-19 CNS): > 100000 nM
- GI50 (MDA-MB-468 breast): 153 nM
- TGI (MDA-MB-468 breast): 741 nM
- GI50 (HCT-15 colon): 1090 nM
- TGI (HCT-15 colon): 22100 nM
- GI50 (DU-145 prostate): 366 nM
- GI50 (CCRF-CEM leukemia): 17.3 nM
- TGI (CCRF-CEM leukemia): 595 nM
- GI50 (SF-539 CNS): 2020 nM
- TGI (SF-539 CNS): 45000 nM
- GI50 (SN12C renal): 251 nM
- TGI (SN12C renal): > 39900 nM
- GI50 (HOP-62 NSCLC): 417 nM
- TGI (HOP-62 NSCLC): 5260 nM
- GI50 (SK-MEL-28 melanoma): 340 nM
- TGI (SK-MEL-28 melanoma): 2750 nM
- GI50 (TK-10 renal): 4220 nM
- TGI (TK-10 renal): > 100000 nM
- GI50 (UACC-257 melanoma): 4760 nM
- TGI (UACC-257 melanoma): 21400 nM
- GI50 (NCI-H460 NSCLC): 39.9 nM
- TGI (NCI-H460 NSCLC): 491 nM
- GI50 (BT-549 breast): 619 nM
- TGI (BT-549 breast): 6520 nM
- GI50 (HS 578T breast): 1580 nM
- TGI (HS 578T breast): 17900 nM
- GI50 (COLO 205 colon): 239 nM
- TGI (COLO 205 colon): 1760 nM
- GI50 (EKVX NSCLC): 3160 nM
- TGI (EKVX NSCLC): > 75400 nM
- GI50 (HOP-92 NSCLC): 284 nM
- TGI (HOP-92 NSCLC): > 100000 nM
- GI50 (A549 NSCLC): 155 nM
- TGI (A549 NSCLC): 3050 nM
- GI50 (NCI-H322M lung): 1320 nM
- TGI (NCI-H322M lung): > 100000 nM
- GI50 (HCT-116 colon): 55.8 nM
- TGI (HCT-116 colon): 5340 nM
- GI50 (OVCAR-8 ovarian): 82.2 nM
- TGI (OVCAR-8 ovarian): 2690 nM
